Results on 3 compounds are retold here after patent US20220265817A1, “THERAPEUTIC COMPOSITIONS AND METHODS FOR TREATING HEPATITIS B” (priority 2017, published 2022).

Experiment [1] relates to D type HBV in primary human hepatocytes (HBeAg). Nature of the experiment: microbe, parasite or virus in culture. Type of experiment: cell-based. The conditions noted are these: Hepatitis B virus, Hepatocyte. The procedure: The mouse liver perfusion was applied to isolate PHHs. The isolated hepatocytes were further purified by Percoll. The cells were resuspended with culture media and seeded into the 96-well plates (6×10^4 cell/well) or 48-well plates (1.2×10^5 cell/well). The PHHs were infected with a D type HBV one day post seeding (day 1).
On day 2, the test compounds were diluted and added into the cell culture plates. The culture media containing the compounds were refreshed every other day. The cell culture supernatants were collected on day 8 for the HBV DNA and antigen determinations.
The compounds were tested at 7 concentrations, 3-fold dilution, in triplicate.
Two compounds were tested at 5×5 matrix, in triplicate plates.
HBsAg/HBeAg in the culture supernatants harvested on days 8 were measured by the HBsAg/HBeAg ELISA kit (Autobio) according to the manual. The samples were diluted with PBS to get the signal in the range of the standard curve. The inhibition rates were calculated with the formula below. The combination effect was analyzed by the MacSynergy software.
% Inh. HBeAg=[1-HBeAg quantity of sample/HBV quantity of DMSO control]×100.

For experiment [2], the system named is hepatitis B virus (HBV). Nature of the experiment: Humanized liver chimeric mouse model of chronic HBV infection, serum HBV DNA by quantitative PCR. Type of experiment: in vivo. The following applies: mean. As to the method: (§1) This work was conducted in a well-established humanized liver chimeric mouse model of chronic hepatitis B virus (HBV) infection (Tsuge et al., Hepatology, 42(5), 1046-54 (2005)). A persistent level of HBV infection was established in the animals prior to the treatment phase which started at Day 0.
(§2) The anti-HBV effects were assessed based on serum HBsAg levels using the GS HBsAg EIA 3.0 enzyme linked immunosorbent assay kit from Bio-Rad Laboratories as per manufacturer instructions; and serum HBV DNA levels measured from total extracted DNA using a quantitative PCR assay (primer/probe sequences from Tanaka et al., Journal of Medical Virology, 72, 223-229 (2004)).

For experiment [3], the system named is hepatitis B virus (HBV). Nature of the experiment: Humanized liver chimeric mouse model of chronic HBV infection, serum HBsAg by EIA. The conditions noted are these: mean ± SEM. The format is in vivo. As to the method:
as §1, §2

Experiment [4] has as its system HBV rcDNA in AML12-HBV10 cells. Nature of the experiment: AML12-HBV10 cell culture system, rcDNA quantitation using bDNA assay, MacSynergy II. The format is cell-based, mouse hepatocyte cell line. The conditions noted are these: Hepatitis B virus, AML12HBV10, in Mus musculus, 48 h, read-out: Inhibitor EC50. The procedure:
In vitro combination studies were conducted using the method of Prichard and Shipman (Prichard M N, and Shipman C Jr., Antiviral Research, 1990, 14 (4-5), 181-205; and Prichard M N, et. al., MacSynergy II). The AML12-HBV10 cell line was developed as described in Campagna et al. (Campagna et. al., J. Virology, 2013, 87(12), 6931-6942). It is a mouse hepatocyte cell line stably transfected with the HBV genome, and which can express HBV pregenomic RNA and support HBV rcDNA (relaxed circular DNA) synthesis in a tetracycline-regulated manner. AML12-HBV10 cells were plated in 96 well tissue-culture treated microtiter plates in DMEM/F12 medium supplemented with 10% fetal bovine serum +1% penicillin-streptomycin without tetracycline and incubated in a humidified incubator at 37° C. and 5% CO2 overnight. […] The two inhibitors were tested both singly as well as in combinations in a checkerboard fashion such that each concentration of inhibitor A was combined with each concentration of inhibitor B to determine their combination effects on inhibition of rcDNA production. Following a 48 hour-incubation, the level of rcDNA present in the inhibitor-treated wells was measured using a bDNA assay (Affymetrix) with HBV specific custom probe set and manufacturer's instructions. […] Concurrently, the effect of inhibitor combinations on cell viability was assessed using replicate plates that were used to determine the ATP content as a measure of cell viability using the cell-titer glo reagent (Promega) as per manufacturer's instructions.

Where two headings read alike, the source gives them in different places.

`CC(C)OC(=O)OCOP(=O)(CO[C@H](C)Cn1cnc2c(N)ncnc21)OCOC(=O)OC(C)C.O=C(O)/C=C/C(=O)O` [TDF, tenofovir disoproxil fumarate, reference compound]: the inhibition at 0.00012 µM in experiment [1] (read-out: AVERAGE % INHIBITION HBeAg, TDF 0.12 nM alone) stood at 7.02%; in experiment [1] (read-out: AVERAGE % INHIBITION HBeAg, TDF 0.12 nM alone (compound 23 study)) it was 4.4%. The inhibition at 0.00037 µM was found to be 6.23% in experiment [1] (read-out: AVERAGE % INHIBITION HBeAg, TDF 0.37 nM alone) and 6.74% in experiment [1] (read-out: AVERAGE % INHIBITION HBeAg, TDF 0.37 nM alone (compound 23 study)). Moreover, the inhibition at 0.00333 µM in experiment [1] (read-out: AVERAGE % INHIBITION HBeAg, TDF 3.33 nM alone) was found to be 11.6%; in experiment [1] (read-out: AVERAGE % INHIBITION HBeAg, TDF 3.33 nM alone (compound 23 study)), 9.05%. For the same compound, the inhibition at 0.01 µM stood at 6.07% in experiment [1] (read-out: AVERAGE % INHIBITION HBeAg, TDF 10.00 nM alone) and 0.72% in experiment [1] (read-out: AVERAGE % INHIBITION HBeAg, TDF 10.00 nM alone (compound 23 study)). In addition, the EC50 in experiment [1] (read-out: Inhibitor A EC50) was over 0.1 µM.
Take `C=C1[C@H](CO)[C@@H](O)C[C@@H]1n1cnc2c(=O)[nH]c(N)nc21` [Entecavir]: the “Serum HBV DNA” value is 1.48E+08 Copies/mL with hepatitis B virus (HBV) [2] (Day 0 (start of treatment), SEM in the line below); 2.35E+07 Copies/mL in the experiment on hepatitis B virus (HBV) [2] (Day 7, Compound 3 oral 100 mg/kg twice daily, SIRNA-NP iv 3 mg/kg every 2 weeks, ETV oral 1.2 μg/kg daily, pegIFN α-2a sc 30 μg/kg twice a week); 1.38E+07 Copies/mL with hepatitis B virus (HBV) [2] (Day 14, same dosages); 1.35E+07 Copies/mL with hepatitis B virus (HBV) [2] (Day 21, same dosages); 9.33E+06 Copies/mL in the experiment with hepatitis B virus (HBV) [2] (Day 28, same dosages). Besides, the “Serum HBsAg” value with hepatitis B virus (HBV) [3] (Day 0 (start of treatment)) was determined as 2649 ± 282 IU/mL; in the experiment on hepatitis B virus (HBV) [3] (Day 21, Compound 3 oral 100 mg/kg twice daily, SIRNA-NP iv 3 mg/kg every 2 weeks, ETV oral 1.2 μg/kg daily, pegIFN α-2a sc 30 μg/kg twice a week), 2975 ± 629 IU/mL. Also, in experiment [4], the concentration giving a half-maximal response (EC50) amounted to 0.012 µM.
With `O=C(Nc1ccc(F)c(F)c1)c1cc(S(=O)(=O)NC2CCCC2)ccc1F` [Compound 22], in experiment [1] (read-out: AVERAGE % INHIBITION HBeAg, COMPOUND 22 61.73 nM alone), the inhibition at 0.06173 µM was -16.8%. Also, the inhibition at 0.18519 µM in experiment [1] (read-out: AVERAGE % INHIBITION HBeAg, COMPOUND 22 185.19 nM alone) was -14.6%; in experiment [1] (read-out: AVERAGE % INHIBITION, TAF 0.00 nM, COMPOUND 22 185.19 nM) it was -12.4%. The inhibition at 0.55556 µM in experiment [1] (read-out: AVERAGE % INHIBITION HBeAg, COMPOUND 22 555.56 nM alone) is -7.23%; in experiment [1] (read-out: AVERAGE % INHIBITION, TAF 0.00 nM, COMPOUND 22 555.56 nM), -5.06%. Further, in experiment [1] (read-out: AVERAGE % INHIBITION HBeAg, COMPOUND 22 1666.67 nM alone), the inhibition at 1.66667 µM was determined as 8.5%. Moreover, the inhibition at 5 µM in experiment [1] (read-out: AVERAGE % INHIBITION HBeAg, COMPOUND 22 5000.00 nM alone) is 21.7%; in experiment [1] (read-out: AVERAGE % INHIBITION, TAF 0.00 nM, COMPOUND 22 5000 nM), 29.7%. Further, the inhibition at 61.73 µM in experiment [1] (read-out: AVERAGE % INHIBITION, IFNα2a 0.00 IU/mL, COMPOUND 22 61.73 μM) was -7.2%. Besides, in experiment [1] (read-out: AVERAGE % INHIBITION, IFNα2a 0.00 IU/mL, COMPOUND 22 185.19 μM), the inhibition at 185.19 µM was -9.57%. Besides, in experiment [1] (read-out: AVERAGE % INHIBITION, IFNα2a 0.00 IU/mL, COMPOUND 22 555.56 μM), the inhibition at 555.56 µM was -8.17%. The inhibition at 1666.67 µM in experiment [1] (read-out: AVERAGE % INHIBITION, IFNα2a 0.00 IU/mL, COMPOUND 22 1666.67 μM) was 5.92%. In addition, in experiment [1] (read-out: AVERAGE % INHIBITION, IFNα2a 0.00 IU/mL, COMPOUND 22 5000.00 μM), the inhibition at 5000 µM was determined as 20.9%. Further, the inhibition at 0.061728 µM in experiment [1] (read-out: AVERAGE % INHIBITION, TAF 0.00 nM, COMPOUND 22 61.728 nM) was -6.71%. In experiment [1] (read-out: AVERAGE % INHIBITION, TAF 0.00 nM, COMPOUND 22 1666.7 nM), the inhibition at 1.6667 µM came to 10.1%. Further, the EC50 in experiment [1] (read-out: Inhibitor B EC50 HBeAg) and in experiment [1] (read-out: Inhibitor EC50) was 10.7 µM in each case.

The term EC50 denotes the concentration that produces a half-maximal response.
